Experimental data published in patent US9346759B2, “Polymorphic crystal forms of 5-(2-{[6-(2,2-difluoro-2-phenylethoxy)hexyl]amino}-1-(R)-hydroxyethyl)-8-hydroxyquinolin-2(1H)-one, heminapadisytlate as agonist of the β2 adrenergic receptor” (ALMIRALL, S.A., priority 2012, dated 2016).

Assay: Aerodynamic assessment of fine particles of the inhalation powder composition (modified Anderson Cascade Impactor, Genuair inhaler)
Format: physicochemical
Details: dry powder blend of the polymorph with lactose carrier, no additive material, ACI 60 L/min, fine particles <5 μm, HPLC
From the text: The process for manufacturing the pharmaceutical composition comprising a polymorphic salt of compound (I) (Type α, Type β or Hydrate) and a carrier is as follows: • 1. 20% by weight of lactose used as a carrier was blended with one polymorph (Type α, Type β or Hydrate). The resulting mixture was sieved and mixed again. • 2. The remaining 80% by weight of lactose was sieved and added to the mixture of Step 1. The whole mixture was blended, sieved and blended again resulting in the final inhalation powder blend.
The test on the aerodynamic assessment of the fine particles (FPD<5 μm) of the inhalation powder composition is carried out in combination with the Genuair® inhaler. The Fine Particle Fraction of the three formulations was calculated on basis of the principles of the aerodynamic assessment of fine particles according to the Current European pharmacopoeia (Ph. Eur. Chapter 2.9.18) and USP<601> by the aid of aerodynamic impactor analyses using a modified Anderson Cascade Impactor (ACI), 60 L/min-configuration including pre-separator, stage-1, -0, and stage 1-7 (filter stage). The content of the active ingredient on each stage of the impactor is determined my means of HPLC.
The fine particle dose (FPD<5 μm) is calculated based on Ph. Eur. Chapter 2.9.18 and USP<601> by point to point interpolation per dosage. […]
To obtain the Fine Particle Dose, the cumulative percent value (y-value) at which the line of data plot crosses 5 μm mark is determined. […] FPD [μg]=yFPD·F/100% • FPD=Fine particle dose<5 μm of the active ingredient per dosage [μg]. • yFPD=y-value of cumulative percentage of mass at a particle size of 5 μm evaluated by linear point to point interpolation [%]. • F=sum of mass on stage-1-stage 7 (filter) per dosage [μg].
The Fine Particle Fraction (FPF) is the percentage of the emitted dose that the Fine Particel Dose represents and is calculated as follows: FPF [%]=(FPD [μg]/Total sum [μg])*100 • Total sum=the amount of drug substance in the respective impactor (Adapter-Filter).

| FPF (%) | FPF (%) (hemihydrate) | Structure (SMILES) |
| --- | --- | --- |
| 42.2% | – | O=c1ccc2c([C@@H](O)CNCCCCCCOCC(F)(F)c3ccccc3)ccc(O)c2[nH]1 [Comparative Example, 5-(2-{[6-(2,2-difluoro-2-phenylethoxy)hexyl]amino}-1(R)-hydroxyethyl)-8-hydroxyquinolin-2(1H)-one, heminapadisylate, reference compound] |
| – | 49.8% | O=c1ccc2c([C@@H](O)CNCCCCCCOCC(F)(F)c3ccccc3)ccc(O)c2[nH]1 [Polymorph Hydrate, 5-(2-{[6-(2,2-difluoro-2-phenylethoxy)hexyl]amino}-1(R)-hydroxyethyl)-8-hydroxyquinolin-2(1H)-one, heminapadisylate, hemihydrate] |
| 49.3% | – | O=c1ccc2c([C@@H](O)CNCCCCCCOCC(F)(F)c3ccccc3)ccc(O)c2[nH]1 [Polymorph Type β, 5-(2-{[6-(2,2-difluoro-2-phenylethoxy)hexyl]amino}-1(R)-hydroxyethyl)-8-hydroxyquinolin-2(1H)-one, heminapadisylate] |
